# Results reported in PubChem BioAssay AID743396 (Broad Institute, 2014).
# Active and inactive are the calls of the source.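 Rule for the calls: active = fitted curve reaches a 40% rise in fluorescent cells at or below the top valid dose; inactive = opposite-direction effect, or the rest.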
# Test: compound fluorescence in GFP channel, mTEFS cells – imaging, mTEFS fibroblasts, cherry-pick, artefact control for X-chromosome reactivation project, dose response (AID 743396);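 note: raw share of Hoechst-counted cells scored GFP positive without control normalization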
# Details: mTEFS fibroblasts autofluorescence, GFP-channel imaging, 3 days; at 19.5 µM (top of the series); cells pretreated with 5-aza-dC
row,Compound,% fluorescent cells increase
1,CN(c1ccccc1)S(=O)(=O)c1ccc(C(=O)NCC(c2ccco2)N2CCCCC2)cc1 (stereo not given),6.89% (inactive)
2,CO[C@@H]1CN(C)C(=O)c2cc(NS(C)(=O)=O)ccc2OC[C@H](C)N(C(=O)C2CCCC2)C[C@H]1C,0.308% (inactive)
3,C[C@@H]1CCCCO[C@H](CN(C)Cc2ccc3c(c2)OCO3)[C@@H](C)CN([C@H](C)CO)C(=O)c2cc(NS(=O)(=O)c3ccc(F)cc3)ccc2O1,0.175% (inactive)
4,CCOc1ccc(C(Nc2cccnc2)c2cc(Cl)c3cccnc3c2O)cc1 (stereo not given),0% (inactive)
5,CCN1CCN(c2cc3nc(C)n(Cc4ccccc4)c(=O)c3cc2NC(=O)c2ccccc2F)CC1,0% (inactive)
6,CCOc1ccc(N2C(=O)CC(Sc3nc(O)c(CC)c(=O)[nH]3)C2=O)cc1 (stereo not given),-0.007% (inactive)
7,Cc1cccc(C(=O)NCc2ccc(S(N)(=O)=O)cc2)c1[N+](=O)[O-],-0.007% (inactive)
8,O=C(CCC(=O)Nc1cccnc1)Nc1cccnc1,0.042% (inactive)
9,COc1ccc2c3c([nH]c2c1)[C@H](CO)N(C(=O)Nc1ccc(F)cc1)CC31CN(CC2CC2)C1,0.116% (inactive)
10,CCNC(=O)C[C@@H]1CC[C@H]2[C@@H](COC[C@@H](O)CN2C(=O)C2CCCC2)O1,0.746% (inactive)
11,CC(OCCN(C)C)C(=O)C12CC3CC(CC(C3)C1)C2 (stereo not given),0.039% (inactive)
12,COc1ccc2c3c([nH]c2c1)[C@H](CO)N(C(=O)c1cccnc1)CC31CCN(Cc2ccccc2)CC1,0.458% (inactive)
13,COc1ccc(COc2ccccc2C(=O)NCc2ccccc2)cc1F,0% (inactive)
14,COc1ccc2c3c(n(C)c2c1)[C@H](CO)N(Cc1ccccc1F)CC31CCN(CC2CC2)CC1,-0.126% (inactive)
15,COC(=O)Nc1ccc(S(=O)(=O)N2CCCC(C(=O)N3CCN(C)CC3)C2)cc1 (stereo not given),0% (inactive)
16,COC(=O)C(C(C)C)N1CCc2c(C)nc3c(C#N)cnn3c21 (stereo not given),0.064% (inactive)
17,Nc1nc(C2CCOCC2)cs1,0.017% (inactive)
18,O=C(/C=C/Sc1ccc(C(F)(F)F)cn1)c1ccccc1,-0.007% (inactive)
19,CC(C)NC(=O)N(C)C[C@@H]1OCCCC[C@H](C)Oc2ccc(NC(=O)Nc3ccc(C(F)(F)F)cc3)cc2C(=O)N([C@H](C)CO)C[C@@H]1C,0% (inactive)
20,Cc1ccc(-c2[nH]c(=S)[nH]c(=O)c2C#N)cc1,0.007% (inactive)
21,CCOC(=O)/C(C#N)=C/C=C1/C=CC=CN1C,0.015% (inactive)
22,O=C(C[C@@H]1C[C@@H]2c3cc(NC(=O)C4CCC4)ccc3O[C@@H]2[C@@H](CO)O1)NCc1ccc(Cl)cc1,0.34% (inactive)
23,Nc1ccc(-c2nc3ccccc3[nH]2)cc1,0% (inactive)
24,Cc1cccc(-c2ccc([C@@H]3[C@@H](CO)N4CCCCN(S(=O)(=O)c5ccccc5F)C[C@H]34)cc2)c1,8.13% (inactive)
25,CC(C)(C)NC(=O)C(c1c[nH]c2ccccc12)N(C(=O)Cn1nnc(-c2ccc(Cl)cc2)n1)c1ccccc1F (stereo not given),0.176% (inactive)
26,COC(=O)c1ccc(CNC(=O)COC(=O)c2cc(Cl)ccc2O)cc1,0% (inactive)

row,Compound,% fluorescent cells increase
1,CCCN(C)C[C@@H]1OCc2cnnn2CCCC(=O)N([C@H](C)CO)C[C@H]1C,0.007% (inactive)
2,Cc1ncsc1C(=O)Nc1cccc(C(F)(F)F)c1,0.019% (inactive)
3,CCCOc1ccc(C(=O)Nc2ccc(CN3CCOCC3)cc2)cc1,0% (inactive)
4,O=C(CCN1CCCCC1)NCC[C@@H]1CC[C@H](NC(=O)C2CCCCC2)[C@H](CO)O1,0.045% (inactive)
5,CC1C=NC(S(=O)(=O)N2CC[C@@H]3[C@@H](CO)N(C)c4ccc(-c5ccccc5)cc4[C@@H]32)=N1 (stereo not given in full),0% (inactive)
6,Cc1ccsc1C1Nc2ccccc2-c2nc3ccccc3n21 (stereo not given),0.699% (inactive)
7,Cc1ccccc1OCC(O)CNC1CCC(NCC(O)COc2ccccc2C)CC1 (stereo not given),0% (inactive)
8,O=c1[nH]nc(SCCS(=O)(=O)c2ccc(F)cc2)n1-c1ccccc1C(F)(F)F,-0.004% (inactive)
9,COc1ccc(OCCN2CCC(C(=O)NC(c3ccc(C)cc3)c3ccccn3)CC2)cc1 (stereo not given),0.021% (inactive)
10,CN(C)CCCNC(=O)/C(=C\c1ccc(-c2ccc(Br)cc2)o1)NC(=O)c1ccccc1,-0.006% (inactive)
11,COc1ccc2c3c(n(C)c2c1)[C@@H](CO)N(C(=O)NC(C)C)CC31CN(C(C)=O)C1,-0.138% (inactive)
12,O=C(NCCO)/C(=C/c1ccco1)NC(=O)c1ccco1,0.007% (inactive)
13,C[C@@H]1ON(C)[C@H]2C[C@H]3c4cc(-c5cccc(F)c5)ccc4CCN3C(=O)[C@@H]12,0% (inactive)
14,COCCN(C(=S)Nc1cccc(C)c1)C(C)c1cccnc1 (stereo not given),-0.004% (inactive)
15,CCOC(=O)C1CCN(c2c(NCc3ccc(C(=O)NC4CCCC4)cc3)c(=O)c2=O)CC1,0% (inactive)
16,COc1ccc(S(=O)(=O)Nc2cccc3c2O[C@H](CN(C)S(=O)(=O)c2cn(C)cn2)[C@H](C)CN([C@H](C)CO)C3=O)cc1,0.016% (inactive)
17,O=[N+]([O-])c1ccc(S(=O)(=O)c2ccccc2)nc1,-0.004% (inactive)
18,CNC(=O)C[C@H]1C(=O)N(c2ccccc2)C[C@@H]1C,0% (inactive)
19,COc1ccc(-c2ccc3[nH]c4c(c3c2)CCN2C(=O)[C@@H]([C@H](C)O)[C@@H](N(C)C(=O)Nc3ccc(F)cc3)C[C@@H]42)cc1,10.8% (inactive)
20,CC(=O)Nc1ccc(N2Cc3ccccc3C2)cc1,0.093% (inactive)
21,O=C(NCCOc1ccccc1)c1cc([N+](=O)[O-])ccc1N1CCOCC1,0.343% (inactive)
22,O=C(CCn1nc(-c2ccc(Cl)cc2)c2ccccc2c1=O)NN1CCOCC1,0.116% (inactive)
23,COc1ccccc1C#Cc1ccc2c(c1)O[C@H](CN(C)Cc1cncnc1)[C@@H](C)CN([C@H](C)CO)S2(=O)=O,0% (inactive)
24,COc1ccc(-n2nc(C#N)c(Cl)cc2=O)cc1,-0.006% (inactive)
25,O=C(Nc1cccc(C(=O)O)c1)/C(=C\c1ccccc1)NC(=O)c1ccc(Br)o1,0% (inactive)
26,Cn1cc(C(=O)N/N=C/C(Br)=C/c2ccccc2)ccc1=O,0% (inactive)

row,Compound,% fluorescent cells increase
1,C[C@@H]1CN([C@@H](C)CO)C(=O)c2cc(NS(=O)(=O)c3ccccc3)ccc2O[C@@H](C)CCCCO[C@@H]1CN(C)Cc1ccc2c(c1)OCO2,0% (inactive)
2,CO[C@@H]1CN(C)C(=O)c2ccc(NC(=O)Nc3cccc(Cl)c3)cc2OC[C@H](C)N(C(=O)Nc2c(C)noc2C)C[C@H]1C,0.367% (inactive)
3,COc1ccc(S(=O)(=O)N(C)C[C@H]2Oc3ccc(NS(=O)(=O)c4ccc(F)cc4)cc3CC(=O)N([C@@H](C)CO)C[C@@H]2C)cc1,0% (inactive)
4,C[C@@H]1CN([C@H](C)CO)C(=O)c2cc(NS(=O)(=O)c3ccc(F)cc3)ccc2O[C@@H](C)CCCCO[C@@H]1CN(C)Cc1ccc2c(c1)OCO2,0% (inactive)
5,Cc1ccc(Cl)cc1NC(=O)CCC(=O)O,-0.002% (inactive)
6,CC1CC(C)CN(C(=O)CSCC(=O)Nc2nc(-c3cccs3)cs2)C1 (stereo not given),0% (inactive)
7,COc1ccc2c3c([nH]c2c1)[C@@H](CO)N(Cc1ccccc1F)CC31CN(C(=O)C2CCOCC2)C1,-0.038% (inactive)
8,Cn1c(=O)[nH]c(=O)c2c1nc1n2CCCN1Cc1ccccc1,-0.011% (inactive)
9,Nc1cc2c3c(cccc3c1)C(=O)N(CCN1CCCC1)C2=O,-0.003% (inactive)
10,CCOC(=O)C1=c2/c(=C/c3ccncc3)c(N)c(C(=O)OC)n2C(=O)C(c2ccncc2)S1 (stereo not given),0.042% (inactive)
11,Cc1nnc(-c2ccc(N3CCCCCC3)c([N+](=O)[O-])c2)o1,0% (inactive)
12,NC(=O)c1sc2nc3c(cc2c1N)CCCCCC3,0.03% (inactive)
13,Cc1ccc(S(=O)(=O)NN2C(=O)/C(=C/c3ccccn3)SC2=S)cc1,0.042% (inactive)
14,COc1ccc2c(c1)C(C)=CC(C)(C)N2S(=O)(=O)c1ccc(Br)cc1,0% (inactive)
15,O=C(OCc1cc(=O)n2c(n1)sc1ccccc12)c1ccc(O)cc1O,-0.007% (inactive)
16,CCOC(=O)CSc1nnc(CCCCCN2C(=O)c3cccc4cccc(c34)C2=O)o1,0.071% (inactive)
17,O=C1N[C@H](Cc2ccccc2)COCc2cn(nn2)CC[C@@H]1Cc1ccccc1,0.024% (inactive)
18,Cc1ccc(NC(=O)COc2ccc(-c3nnco3)cc2)cc1S(=O)(=O)N1CCOCC1,0.01% (inactive)
19,O=c1[nH]cnc2c1ncn2[C@H]1CC[C@@H](CO)O1,0.722% (inactive)
20,CN(C)/C=C1\C=C2C(=O)c3ccccc3N2C1=O,0.092% (inactive)
21,O=C(OCc1cccc(F)c1)c1ccc2c(=O)n3c(nc2c1)CCC3,0.065% (inactive)
22,CN(C)C(=O)C[C@@H]1C=C[C@H](NS(=O)(=O)c2ccccc2)[C@@H](CO)O1,0% (inactive)
23,Brc1ccc(-c2cn3ccccc3n2)cc1,0% (inactive)
24,CCOC(=O)c1ccc(NC(=O)C2(N3C(=O)c4ccccc4C3=O)CCCC2)cc1,0.495% (inactive)
25,CCN(CC)c1ccc(N=Cc2ccc([N+](=O)[O-])o2)cc1,0.026% (inactive)
26,O=c1c2cc(-c3ccccc3)sc2nc2n1N=C(c1ccccc1)CS2,1.14% (inactive)

# Same assay, conditions: mTEFS fibroblasts autofluorescence, GFP-channel imaging, 3 days; at 21 µM (top of the series); cells pretreated with 5-aza-dC
row,Compound,% fluorescent cells increase
1,CO[C@H](CN(C)C(=O)Nc1ccc(C(F)(F)F)cc1)[C@@H](C)CN(Cc1ccccc1Cl)[C@@H](C)CO,0% (inactive)
2,Cc1ccc(-c2ccccc2[C@@H]2[C@H](C#N)N(S(C)(=O)=O)[C@H]2CO)cc1,-0.036% (inactive)
